From patent publication US8183258B2, “Heterocyclic compounds and their uses” (Amgen Inc., priority 2007, dated 2012)
Read-outs that look alike come from different tables or passages of the source. One block for each compound: values may come before it.

What was measured:
PI3Kδ = target: T1, PI3Kδ (Homo sapiens, UniProt O00329); test: In vitro enzyme assay, residual ATP bioluminescence; assay type: biochemical
T1 construct: Full length p110 subunits of PI3k α, β and δ; polyHis (N); made in house; host or cells: Sf9 insect cells (baculovirus)
T1 sequence (P27986 whole entry partner, one chain of several): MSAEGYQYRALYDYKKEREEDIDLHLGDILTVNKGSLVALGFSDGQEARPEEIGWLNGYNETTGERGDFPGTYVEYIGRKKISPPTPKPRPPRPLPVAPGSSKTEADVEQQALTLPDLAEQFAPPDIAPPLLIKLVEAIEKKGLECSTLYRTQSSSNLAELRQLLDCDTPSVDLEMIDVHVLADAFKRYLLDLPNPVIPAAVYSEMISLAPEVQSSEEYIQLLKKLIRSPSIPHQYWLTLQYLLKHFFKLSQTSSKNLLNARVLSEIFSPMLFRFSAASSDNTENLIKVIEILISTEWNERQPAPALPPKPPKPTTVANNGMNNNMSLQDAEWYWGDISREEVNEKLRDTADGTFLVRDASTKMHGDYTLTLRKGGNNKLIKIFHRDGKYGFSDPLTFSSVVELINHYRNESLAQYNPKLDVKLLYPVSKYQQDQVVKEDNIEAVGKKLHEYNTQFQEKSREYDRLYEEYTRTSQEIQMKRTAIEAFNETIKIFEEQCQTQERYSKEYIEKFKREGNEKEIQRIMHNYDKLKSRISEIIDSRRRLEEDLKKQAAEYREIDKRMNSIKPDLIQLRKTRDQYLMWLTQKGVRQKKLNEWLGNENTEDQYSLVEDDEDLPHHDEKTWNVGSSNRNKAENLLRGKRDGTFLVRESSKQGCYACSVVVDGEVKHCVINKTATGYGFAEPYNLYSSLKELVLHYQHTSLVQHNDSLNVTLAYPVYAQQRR
Method: Full length p110 subunits of PI3k α, β and δ, N-terminally labeled with polyHis tag, were coexpressed with p85 with Baculo virus expression vectors in sf9 insect cells. P110/p85 heterodimers were purified by sequential Ni-NTA, Q-HP, Superdex-100 chromatography. Purified α, β and δ isozymes were stored at −20° C. in 20 mM Tris, pH 8, 0.2M NaCl, 50% glycerol, 5 mM DTT, 2 mM Na cholate. Truncated PI3Kγ, residues 114-1102, N-terminally labeled with polyHis tag, was expessed with Baculo virus in Hi5 insect cells. The γ isozyme was purified by sequential Ni-NTA, Superdex-200, Q-HP chromatography. The γ isozyme was stored frozen at −80° C. in NaH2PO4, pH 8, 0.2M NaCl, 1% ethylene glycol, 2 mM β-mercaptoethanol.
Assays were performed in 25 μL with the above final concentrations of components in white polyproplyene plates (Costar 3355). Phospatidyl inositol phosphoacceptor, PtdIns(4,5)P2 P4508, was from Echelon Biosciences. The ATPase activity of the alpha and gamma isozymes was not greatly stimulated by PtdIns(4,5)P2 under these conditions and was therefore omitted from the assay of these isozymes. Test compounds were dissolved in dimethyl sulfoxide and diluted with three-fold serial dilutions. The compound in DMSO (1 μL) was added per test well, and the inhibition relative to reactions containing no compound, with and without enzyme was determined. After assay incubation at room temperature, the reaction was stopped and residual ATP determined by addition of an equal volume of a commercial ATP bioluminescence kit (Perkin Elmer EasyLite) according to the manufacturer's instructions, and detected using a AnalystGT luminometer.

protein kinases = conditions: cited from earlier work
[1] = system: ovalbumin-induced airway inflammation; conditions: cited from earlier work
p110δ = target: T2, p110δ (Homo sapiens, UniProt O00329); conditions: cited from earlier work
T2 sequence (O00329 1-1044): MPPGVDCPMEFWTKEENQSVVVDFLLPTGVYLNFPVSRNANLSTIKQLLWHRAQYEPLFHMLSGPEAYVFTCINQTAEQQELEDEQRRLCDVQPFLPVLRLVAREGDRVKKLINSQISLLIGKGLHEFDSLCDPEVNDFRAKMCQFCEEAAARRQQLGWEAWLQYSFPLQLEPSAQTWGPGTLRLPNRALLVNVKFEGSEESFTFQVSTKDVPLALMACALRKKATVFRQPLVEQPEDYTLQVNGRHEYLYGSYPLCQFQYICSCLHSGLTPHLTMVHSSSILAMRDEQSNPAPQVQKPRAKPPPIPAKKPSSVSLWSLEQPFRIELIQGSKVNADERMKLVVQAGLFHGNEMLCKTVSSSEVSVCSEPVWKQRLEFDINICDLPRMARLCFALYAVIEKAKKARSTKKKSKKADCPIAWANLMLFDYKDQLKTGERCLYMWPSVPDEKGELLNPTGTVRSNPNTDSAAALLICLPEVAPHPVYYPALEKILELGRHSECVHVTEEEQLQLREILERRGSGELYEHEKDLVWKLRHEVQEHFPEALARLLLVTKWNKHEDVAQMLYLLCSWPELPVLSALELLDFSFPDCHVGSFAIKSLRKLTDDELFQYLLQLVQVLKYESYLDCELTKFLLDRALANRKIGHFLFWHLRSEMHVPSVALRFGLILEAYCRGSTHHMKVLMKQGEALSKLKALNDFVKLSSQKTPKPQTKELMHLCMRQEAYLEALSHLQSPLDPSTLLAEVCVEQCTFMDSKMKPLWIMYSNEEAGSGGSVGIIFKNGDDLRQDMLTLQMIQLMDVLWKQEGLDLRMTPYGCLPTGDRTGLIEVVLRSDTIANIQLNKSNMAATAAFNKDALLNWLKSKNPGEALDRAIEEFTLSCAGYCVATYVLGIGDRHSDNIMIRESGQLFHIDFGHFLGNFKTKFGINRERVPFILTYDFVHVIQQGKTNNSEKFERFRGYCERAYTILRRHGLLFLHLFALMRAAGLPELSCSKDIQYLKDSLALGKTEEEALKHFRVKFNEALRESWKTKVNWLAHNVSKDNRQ

[2] = system: passive cutaneous anaphylaxis (PCA); conditions: absence of functional delta (compound or p110δ D910A mice); cited from earlier work
[3] = system: model of systemic lupus erythematosis; conditions: in vivo; cited from earlier work
[4] = system: mouse model of rheumatoid arthritis; conditions: in vivo; cited from earlier work

- IC50 (PI3Kδ; read-out: PI3Kδ IC50): 6870 nM
Compound: Nc1cc(NCc2cc3cccc(Cl)c3nc2-c2ccccc2Cl)ncn1 [Example 2, N4-((8-Chloro-2-(2-chlorophenyl)quinolin-3-yl)-methyl)pyrimidine-4,6-diamine]

- IC50 (PI3Kδ; table after the in vitro enzyme assays, isoform and unit inferred, read-out: IC50): > 40000 nM
Compound: NC(=O)c1cc(NS(=O)(=O)c2cc3cccc(Cl)c3nc2-c2ccccc2Cl)ccn1 [Example 7, 4-(8-chloro-2-(2-chlorophenyl)quinoline-3-sulfonamido)picolinamide]

- IC50 (PI3Kδ; read-out: PI3Kδ IC50): 165 nM
Compound: Cc1cccc2cc(CNc3nc(N)ncc3Cl)c(-c3ccccc3Cl)nc12 [Example 1, 5-Chloro-N4-((2-(2-chlorophenyl)-8-methylquinolin-3-yl)methyl)pyrimidine-2,4-diamine]

- IC50 (PI3Kδ; read-out: PI3Kδ IC50): 2820 nM
Compound: Cc1cccc2cc(CNc3ncc(C(F)(F)F)c(N)n3)c(-c3ccccc3Cl)nc12 [Example 4, N2-((2-(2-chlorophenyl)-8-methylquinolin-3-yl)methyl)-5-(trifluoromethyl)pyrimidine-2,4-diamine]

The next lines start with the compound.

Compound: Cc1ccccc1-n1c(Cn2cnc3c(N)ncnc32)nc2cccc(C)c2c1=O [IC87114]
- activity against any protein kinases tested (protein kinases): no activity
- inflammation and disease in a murine model of asthma [1]: significantly ameliorate inflammation and disease
- inhibition of p110δ (p110δ): high nanomolar range (triple digit)
- passive cutaneous anaphylaxis (PCA) [2]: significantly reduced

Compound: O=C1NC(=O)/C(=C\c2ccc3nccnc3c2)S1 [AS 605240]
- onset of disease in a model of systemic lupus erythematosis [3]: delay onset of disease
- efficacy in a mouse model of rheumatoid arthritis [4]: efficacious

Compound: Cc1cccc2cc(CNc3nc(N)ncc3C(F)(F)F)c(-c3ccccc3Cl)nc12 [Example 3, N4-((2-(2-chlorophenyl)-8-methylquinolin-3-yl)methyl)-5-(trifluoromethyl)pyrimidine-2,4-diamine]
- IC50 (PI3Kδ; read-out: PI3Kδ IC50): 127 nM
